# Measurements as given in paper PMC5003625 (Journal of medicinal chemistry, 2016).
# What was measured:
# [1] = target: EZH2 trimeric complex (EZH2:EED:SUZ12) (Homo sapiens, UniProt Q15910); assay: Methyltransferase activity assay; format: biochemical; conditions: for fold loss of potency for EZH2: relative to the parent compound of the sentence (5, 24 or 53)
# [2] = target: EZH1 pentameric complex (EZH1:EED:SUZ12:RBBP4:AEBP2) (Homo sapiens, UniProt Q92800); assay: Methyltransferase activity assay; format: biochemical; conditions: for fold loss of potency for EZH1: relative to the parent compound 5
# Sequence of EZH1 pentameric complex (EZH1:EED:SUZ12:RBBP4:AEBP2) (Q92800 whole entry): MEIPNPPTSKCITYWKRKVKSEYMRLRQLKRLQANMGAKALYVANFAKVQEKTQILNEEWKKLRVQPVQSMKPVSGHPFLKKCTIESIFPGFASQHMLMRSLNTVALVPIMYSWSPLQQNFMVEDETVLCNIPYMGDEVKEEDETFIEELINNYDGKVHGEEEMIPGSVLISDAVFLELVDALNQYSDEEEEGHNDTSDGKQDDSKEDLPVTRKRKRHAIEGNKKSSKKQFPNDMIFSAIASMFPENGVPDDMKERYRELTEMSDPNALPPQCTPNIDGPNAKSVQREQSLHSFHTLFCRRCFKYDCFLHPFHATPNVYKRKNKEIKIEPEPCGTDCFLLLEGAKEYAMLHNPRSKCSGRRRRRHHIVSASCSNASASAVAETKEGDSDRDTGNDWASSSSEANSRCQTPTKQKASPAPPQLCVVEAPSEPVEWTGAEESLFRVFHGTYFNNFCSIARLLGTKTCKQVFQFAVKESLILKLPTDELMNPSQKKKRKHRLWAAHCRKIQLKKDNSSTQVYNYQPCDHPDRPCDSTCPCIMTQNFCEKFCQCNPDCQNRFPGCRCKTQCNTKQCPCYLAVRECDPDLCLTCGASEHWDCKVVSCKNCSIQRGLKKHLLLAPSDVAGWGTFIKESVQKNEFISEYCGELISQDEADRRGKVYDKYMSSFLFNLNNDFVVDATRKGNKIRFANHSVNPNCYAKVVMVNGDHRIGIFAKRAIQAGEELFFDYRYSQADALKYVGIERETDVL
# Sequence of EZH1 pentameric complex (EZH1:EED:SUZ12:RBBP4:AEBP2) (O75530 whole entry partner): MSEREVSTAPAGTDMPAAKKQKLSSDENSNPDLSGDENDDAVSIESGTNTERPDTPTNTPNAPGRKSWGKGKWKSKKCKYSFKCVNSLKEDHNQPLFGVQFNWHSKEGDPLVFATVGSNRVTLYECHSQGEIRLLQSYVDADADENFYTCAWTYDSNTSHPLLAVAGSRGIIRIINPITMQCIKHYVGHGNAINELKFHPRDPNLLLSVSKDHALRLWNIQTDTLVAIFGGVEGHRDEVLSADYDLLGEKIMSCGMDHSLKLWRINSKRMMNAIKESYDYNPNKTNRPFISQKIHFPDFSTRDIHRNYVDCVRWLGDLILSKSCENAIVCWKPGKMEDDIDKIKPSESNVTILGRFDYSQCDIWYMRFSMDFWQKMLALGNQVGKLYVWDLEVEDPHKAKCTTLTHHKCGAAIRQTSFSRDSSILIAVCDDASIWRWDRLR
# Sequence of EZH1 pentameric complex (EZH1:EED:SUZ12:RBBP4:AEBP2) (Q15022 whole entry partner): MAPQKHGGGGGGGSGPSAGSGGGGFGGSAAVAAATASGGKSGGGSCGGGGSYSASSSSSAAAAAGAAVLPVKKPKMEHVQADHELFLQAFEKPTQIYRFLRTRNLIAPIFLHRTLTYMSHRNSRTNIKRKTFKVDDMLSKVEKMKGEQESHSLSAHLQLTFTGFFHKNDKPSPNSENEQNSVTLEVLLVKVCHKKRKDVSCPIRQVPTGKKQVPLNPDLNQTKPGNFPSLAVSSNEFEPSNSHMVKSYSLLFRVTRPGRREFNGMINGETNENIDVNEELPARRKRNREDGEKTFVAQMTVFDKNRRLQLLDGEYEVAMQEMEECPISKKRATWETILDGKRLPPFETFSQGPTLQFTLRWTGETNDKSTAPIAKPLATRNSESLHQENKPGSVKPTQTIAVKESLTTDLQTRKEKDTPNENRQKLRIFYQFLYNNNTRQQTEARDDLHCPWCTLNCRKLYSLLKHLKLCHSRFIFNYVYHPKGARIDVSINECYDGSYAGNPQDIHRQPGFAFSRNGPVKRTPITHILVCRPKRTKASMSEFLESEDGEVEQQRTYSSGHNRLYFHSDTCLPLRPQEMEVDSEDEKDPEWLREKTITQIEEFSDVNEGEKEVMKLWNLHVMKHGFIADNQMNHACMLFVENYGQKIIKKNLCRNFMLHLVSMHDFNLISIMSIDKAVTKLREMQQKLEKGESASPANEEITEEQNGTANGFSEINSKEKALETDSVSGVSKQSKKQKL
# Sequence of EZH1 pentameric complex (EZH1:EED:SUZ12:RBBP4:AEBP2) (Q09028 whole entry partner): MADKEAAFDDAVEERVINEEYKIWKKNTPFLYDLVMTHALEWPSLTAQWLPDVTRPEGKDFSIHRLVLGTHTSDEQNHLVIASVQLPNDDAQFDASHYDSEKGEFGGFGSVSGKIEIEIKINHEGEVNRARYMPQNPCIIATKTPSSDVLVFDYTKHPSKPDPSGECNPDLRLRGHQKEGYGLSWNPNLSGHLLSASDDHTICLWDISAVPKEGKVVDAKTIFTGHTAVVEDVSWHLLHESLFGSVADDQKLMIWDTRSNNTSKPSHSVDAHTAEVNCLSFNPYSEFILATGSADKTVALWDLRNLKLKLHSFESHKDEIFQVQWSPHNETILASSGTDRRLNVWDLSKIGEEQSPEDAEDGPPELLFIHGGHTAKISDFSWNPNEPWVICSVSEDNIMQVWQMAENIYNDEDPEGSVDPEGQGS
# Sequence of EZH1 pentameric complex (EZH1:EED:SUZ12:RBBP4:AEBP2) (Q6ZN18 whole entry partner): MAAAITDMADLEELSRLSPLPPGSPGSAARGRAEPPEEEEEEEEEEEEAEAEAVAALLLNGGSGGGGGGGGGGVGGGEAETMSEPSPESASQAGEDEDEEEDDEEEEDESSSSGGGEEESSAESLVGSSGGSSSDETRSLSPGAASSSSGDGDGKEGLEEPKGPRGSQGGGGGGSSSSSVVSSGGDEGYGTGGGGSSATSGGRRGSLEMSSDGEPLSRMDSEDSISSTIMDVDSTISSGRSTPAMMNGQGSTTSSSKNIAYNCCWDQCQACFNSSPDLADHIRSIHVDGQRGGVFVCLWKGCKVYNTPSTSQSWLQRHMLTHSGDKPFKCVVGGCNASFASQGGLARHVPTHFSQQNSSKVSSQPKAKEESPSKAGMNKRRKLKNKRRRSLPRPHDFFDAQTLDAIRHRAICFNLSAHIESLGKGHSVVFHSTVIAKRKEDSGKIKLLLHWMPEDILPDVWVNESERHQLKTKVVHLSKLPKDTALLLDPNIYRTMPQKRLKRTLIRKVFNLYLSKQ
# Sequence of EZH2 trimeric complex (EZH2:EED:SUZ12) (Q15910 whole entry): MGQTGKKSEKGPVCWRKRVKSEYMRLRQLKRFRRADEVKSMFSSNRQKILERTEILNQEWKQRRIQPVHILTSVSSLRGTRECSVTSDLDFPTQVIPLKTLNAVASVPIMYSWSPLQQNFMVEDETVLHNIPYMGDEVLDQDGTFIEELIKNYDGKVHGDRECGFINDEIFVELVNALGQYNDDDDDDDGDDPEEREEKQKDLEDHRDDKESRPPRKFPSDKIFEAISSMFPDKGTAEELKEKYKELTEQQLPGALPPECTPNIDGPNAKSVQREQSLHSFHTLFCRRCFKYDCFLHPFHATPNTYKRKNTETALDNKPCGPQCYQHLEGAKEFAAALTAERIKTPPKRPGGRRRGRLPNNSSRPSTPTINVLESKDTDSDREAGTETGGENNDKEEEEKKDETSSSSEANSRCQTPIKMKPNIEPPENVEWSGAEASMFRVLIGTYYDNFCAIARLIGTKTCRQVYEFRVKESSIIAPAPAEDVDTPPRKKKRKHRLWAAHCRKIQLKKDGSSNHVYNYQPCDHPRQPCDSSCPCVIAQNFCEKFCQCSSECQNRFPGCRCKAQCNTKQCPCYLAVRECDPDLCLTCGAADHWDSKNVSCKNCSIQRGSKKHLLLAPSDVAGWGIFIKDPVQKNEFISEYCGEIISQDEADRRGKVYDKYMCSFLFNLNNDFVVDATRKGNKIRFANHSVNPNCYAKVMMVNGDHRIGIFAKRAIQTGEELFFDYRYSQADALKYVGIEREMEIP
# Sequence of EZH2 trimeric complex (EZH2:EED:SUZ12) (O75530 whole entry partner): as the sequence (O75530 whole entry partner) above
# Sequence of EZH2 trimeric complex (EZH2:EED:SUZ12) (Q15022 whole entry partner): as the sequence (Q15022 whole entry partner) above
"inhibitory activity against EZH1, in words [2]","inhibitory activity against EZH2, in words [1]",Structure (SMILES),other results
–,–,"CCCc1cc(C)[nH]c(=O)c1CNC(=O)c1cc(-c2ccc(N3CCN(C(C)C)CC3)nc2)cc2c1cnn2CC1CCCC1 [Compound 58, 1-(Cyclopentylmethyl)-6-(6-(4-isopropylpiperazin-1-yl)pyridin-3-yl)-N-((6-methyl-2-oxo-4-propyl-1,2-dihydropyridin-3-yl)methyl)-1H-indazole-4-carboxamide]",fold loss of potency for EZH2 [1]: > 15 fold
did not display any inhibitory activity,did not display any inhibitory activity,"CCCc1cc(C)[nH]c(=O)c1CNC(=O)c1cccn2c(-c3ccc(N4CCN(C(C)C)CC4)nc3)cnc12 [Compound 48, 3-(6-(4-Isopropylpiperazin-1-yl)pyridin-3-yl)-N-((6-methyl-2-oxo-4-propyl-1,2-dihydropyridin-3-yl)methyl)imidazo[1,2-a]pyridine-8-carboxamide]",–
–,–,"CCCc1cc(C)[nH]c(=O)c1CNC(=O)c1cc(-c2ccc(N3CCN(C(C)C)CC3)nc2)cc2nn(C(C)C)cc12 [Compound 44, 2-Isopropyl-6-(6-(4-isopropylpiperazin-1-yl)pyridin-3-yl)-N-((6-methyl-2-oxo-4-propyl-1,2-dihydropyridin-3-yl)methyl)-2H-inda-zole-4-carboxamide]",fold loss of potency for EZH2 [1]: more than 30 fold; fold loss of potency for EZH1 [2]: more than 30 fold
–,–,"CC(C)N1CCN(c2ccc(-c3cc(C(=O)NCc4ccc[nH]c4=O)c4cnn(C(C)C)c4c3)cn2)CC1 [Compound 34, 1-Isopropyl-6-(6-(4-isopropylpiperazin-1-yl)pyridin-3-yl)-N-((2-oxo-1,2-dihydropyridin-3-yl)methyl)-1H-indazole-4-carboxamide]",fold loss of potency for EZH2 [1]: > 500 fold
–,relatively good potency,"CCCc1cc(C)[nH]c(=O)c1CNC(=O)c1cc(-c2ccc(C(F)(F)F)cc2)cc2c1cnn2C(C)C [Compound 68, 1-Isopropyl-N-((6-methyl-2-oxo-4-propyl-1,2-dihydropyridin-3-yl)methyl)-6-(4-(trifluoromethyl)phenyl)-1H-indazole-4-carboxa-mide]",–
did not display any inhibitory activity,did not display any inhibitory activity,"CCCc1cc(C)[nH]c(=O)c1CNC(=O)c1cnn2c(-c3ccc(N4CCN(C(C)C)CC4)nc3)cccc12 [Compound 49, 7-(6-(4-Isopropylpiperazin-1-yl)pyridin-3-yl)-N-((6-methyl-2-oxo-4-propyl-1,2-dihydropyridin-3-yl)methyl)pyrazolo[1,5-a]pyridine-3-carboxamide]",–
–,–,"CCCc1cc(C)[nH]c(=O)c1CNC(=O)c1cc(Br)cc2c1cnn2C(C)C [Compound 76, 6-Bromo-1-isopropyl-N-((6-methyl-2-oxo-4-propyl-1,2-dihydro-pyridin-3-yl)methyl)-1H-indazole-4-carboxamide]",fold loss of potency for EZH2 [1]: 3–4 fold
–,relatively good potency,CCCc1cc(C)[nH]c(=O)c1CNC(=O)c1cc(-c2ccc(F)cc2)cc2c1cnn2C(C)C [Compound 67],–
did not affect the potency,did not affect the potency,CCCc1cc(C)[nH]c(=O)c1CNC(=O)c1cc(-c2ccc(N3CCN(CC)CC3)nc2)cc2c1cnn2C(C)C [Compound 64],–
completely abrogated inhibitory activity,completely abrogated inhibitory activity,"Cc1[nH]c(=O)[nH]c(=O)c1CNC(=O)c1cc(-c2ccc(N3CCN(C(C)C)CC3)nc2)cc2c1cnn2C(C)C [Compound 42, 1-Isopropyl-6-(6-(4-isopropylpiperazin-1-yl)pyridin-3-yl)-N-((6-methyl-2,4-dioxo-1,2,3,4-tetrahydropyrimidin-5-yl)methyl)-1H-in-dazole-4-carboxamide]",–
total loss of potency,total loss of potency,"Cc1cc(O)c(CNC(=O)c2cc(-c3ccc(N4CCN(C(C)C)CC4)nc3)cc3c2cnn3C(C)C)c(=O)[nH]1 [Compound 39, N-((4-Hydroxy-6-methyl-2-oxo-1,2-dihydropyridin-3-yl)methyl)-1-isopropyl-6-(6-(4-isopropylpiperazin-1-yl)pyridin-3-yl)-1H-inda-zole-4-carboxamide]",–
complete loss of potency,complete loss of potency,"Cc1cc(-c2ccccc2)[nH]c(=O)c1CNC(=O)c1cc(-c2ccc(N3CCN(C(C)C)CC3)nc2)cc2c1cnn2C(C)C [Compound 33, 1-Isopropyl-6-(6-(4-isopropylpiperazin-1-yl)pyridin-3-yl)-N-((4-methyl-2-oxo-6-phenyl-1,2-dihydropyridin-3-yl)methyl)-1H-inda-zole-4-carboxamide]",–
abolished all EZH1 inhibition,–,"CCCc1cc(C)[nH]c(=O)c1CNC(=O)c1cc(-c2ccc(N3CCN(C(C)C)CC3)nc2)c2cnn(C(C)C)c2c1 [Compound 47, 1-Isopropyl-4-(6-(4-isopropylpiperazin-1-yl)pyridin-3-yl)-N-((6-methyl-2-oxo-4-propyl-1,2-dihydropyridin-3-yl)methyl)-1H-inda-zole-6-carboxamide]",–
–,–,"CCCc1cc(C)[nH]c(=O)c1CNC(=O)c1cc(C2CCNCC2)cc2c1cnn2C(C)C [Compound 72, 1-Isopropyl-N-((6-methyl-2-oxo-4-propyl-1,2-dihydropyridin-3-yl)methyl)-6-(piperidin-4-yl)-1H-indazole-4-carboxamide]",fold loss of potency for EZH1 [2]: more than 10 fold
–,significant drop in potency,"CCCc1cc(C)[nH]c(=O)c1CNC(=O)c1cc(-c2ccc(N3CCN(C(C)C)CC3)nc2)cc2c1cnn2CC1CCCCC1 [Compound 59, 1-(Cyclohexylmethyl)-6-(6-(4-isopropylpiperazin-1-yl)pyridin-3-yl)-N-((6-methyl-2-oxo-4-propyl-1,2-dihydropyridin-3-yl)methyl)-1H-indazole-4-carboxamide]",–
–,–,"CCCc1cc(C)[nH]c(=O)c1CNC(=O)c1cc(N2CCNCC2)cc2c1cnn2C(C)C [Compound 73, 1-Isopropyl-N-((6-methyl-2-oxo-4-propyl-1,2-dihydropyridin-3-yl)methyl)-6-(piperazin-1-yl)-1H-indazole-4-carboxamide]",fold loss of potency for EZH1 [2]: more than 10 fold
–,–,"CCc1cc(C)[nH]c(=O)c1CNC(=O)c1cc(-c2ccc(N3CCN(C(C)C)CC3)nc2)cc2c1cnn2C(C)C [Compound 25, N-((4-Ethyl-6-methyl-2-oxo-1,2-dihydropyridin-3-yl)methyl)-1-isopropyl-6-(6-(4-isopropylpiperazin-1-yl)pyridin-3-yl)-1H-indazole-4-carboxamide]",fold increase in EZH1 potency ([2]; relative to compound 24): more than 3 fold
–,significant drop in potency,"CCCc1cc(C)[nH]c(=O)c1CNC(=O)c1cc(-c2ccc(N3CCN(C(C)C)CC3)nc2)cc2c1cnn2CCC1CCCCC1 [Compound 62, 1-(2-Cyclohexylethyl)-6-(6-(4-isopropylpiperazin-1-yl)pyridin-3-yl)-N-((6-methyl-2-oxo-4-propyl-1,2-dihydropyridin-3-yl)methyl)-1H-indazole-4-carboxamide]",–
–,relatively good potency,"CCCc1cc(C)[nH]c(=O)c1CNC(=O)c1cc(-c2ccccc2)cc2c1cnn2C(C)C [Compound 66, 1-Isopropyl-N-((6-methyl-2-oxo-4-propyl-1,2-dihydropyridin-3-yl)methyl)-6-phenyl-1H-indazole-4-carboxamide]",–

Structure (SMILES),"inhibitory activity against EZH1, in words [2]","inhibitory activity against EZH2, in words [1]",other results
"CCCc1cc(C)[nH]c(=O)c1CNC(=O)c1cc(-c2ccc(N3CCN(C(C)C)CC3)nc2)cc2c1cnn2C [Compound 55, 6-(6-(4-Isopropylpiperazin-1-yl)pyridin-3-yl)-1-methyl-N-((6-methyl-2-oxo-4-propyl-1,2-dihydropyridin-3-yl)methyl)-1H-inda-zole-4-carboxamide]",did not have appreciable inhibitory activity,–,fold loss of potency for EZH2 [1]: 10–20 fold
"CCCc1cc(C)[nH]c(=O)c1CNC(=O)c1nn(C(C)C)c2cc(-c3ccc(N4CCN(C(C)C)CC4)nc3)ccc12 [Compound 45, 1-Isopropyl-6-(6-(4-isopropylpiperazin-1-yl)pyridin-3-yl)-N-((6-methyl-2-oxo-4-propyl-1,2-dihydropyridin-3-yl)methyl)-1H-inda-zole-3-carboxamide]",obliterated the inhibitory activity,obliterated the inhibitory activity,–
"CCCc1cc(C)[nH]c(=O)c1CNC(=O)c1nn(C(C)C)c2ccc(-c3ccc(N4CCN(C(C)C)CC4)nc3)cc12 [Compound 46, 1-Isopropyl-5-(6-(4-isopropylpiperazin-1-yl)pyridin-3-yl)-N-((6-methyl-2-oxo-4-propyl-1,2-dihydropyridin-3-yl)methyl)-1H-inda-zole-3-carboxamide]",complete loss of potency,complete loss of potency,–
"CCc1cc(C)c(CNC(=O)c2cc(-c3ccc(N4CCN(C(C)C)CC4)nc3)cc3c2cnn3C(C)C)c(=O)[nH]1 [Compound 30, N-((6-Ethyl-4-methyl-2-oxo-1,2-dihydropyridin-3-yl)methyl)-1-isopropyl-6-(6-(4-isopropylpiperazin-1-yl)pyridin-3-yl)-1H-indazole-4-carboxamide]",did not exhibit appreciable inhibitory activity,–,–
"CCC(C)c1cc(C)c(CNC(=O)c2cc(-c3ccc(N4CCN(C(C)C)CC4)nc3)cc3c2cnn3C(C)C)c(=O)[nH]1 (stereo not shown) [Compound 31, N-((6-(sec-Butyl)-4-methyl-2-oxo-1,2-dihydropyridin-3-yl)-methyl)-1-isopropyl-6-(6-(4-isopropylpiperazin-1-yl)pyridin-3-yl)-1H-indazole-4-carboxamide]",did not exhibit appreciable inhibitory activity,–,–
